Key:
RAW-Blue cells = test: Nanoparticle cell-surface binding/uptake in RAW-Blue cells (rhodamine fluorescence); type: cell-based, mouse; settings: 1 and 10 µM nanoparticles with 1% rhodamine; 550/620 nm
Procedure: A schematic representation of nanoparticle screening is depicted in Supplementary Figure S4. Briefly, RAW-Blue NFkB reporter cells were cultured as per the manufacturer's recommendations. Cells were seeded and cultured overnight in black opaque 96-well plates with a clear bottom at 50,000 per well. Cells were then treated with 1 and 10 µM of nanoparticles containing 1% rhodamine and positive and negative controls (see below) for 30 min on ice followed by washing steps with cold PBS. Next, lipopolysaccharide (LPS) was added at 100 ng/mL and incubated for 6 h at 37 °C, following which the cells were washed again and incubated for 18 h at 37 °C in fresh medium. Next, 20 µL of supernatant was collected and assayed using SEAP detection reagent in a separate clear bottom 96-well plate as per Invivogen instructions (http://www.invivogen.com). Absorbance at OD 650 nm was recorded and was indicative of NFkB activation. In parallel, cells in the opaque plate were washed again and fluorescence was read at 550 nm excitation and 620 nm emission. This signal from rhodamine was indicative of nanoparticle uptake. […] All analysis was performed using Molecular Devices i3 multi-mode plate reader and SoftMax Pro software version 6.2 (Molecular Devices).

RAW 264.7 cells = test: Gene expression analysis in LPS-stimulated RAW cells; type: cell-based, mouse; settings: 1 µM, 24 h, LPS 100 ng/mL; vs VTCC or vehicle
Procedure: RAW 264.7 cells were seeded in 24-well plates at 1.0 x 10^5 per well with LPS (100 ng/mL) and allowed to attach overnight. After a quick wash with PBS, RNA was isolated from cells following the Trizol method. Next, RNA was reverse transcribed to cDNA, and amplified by the polymerase chain reaction (PCR) using reagents from cDNA synthesis kit, SYBR Green PCR Master Mix and target-specific TaqMan probes as indicated in Supplementary Table S1. Roche LightCycler 480 II was used to perform quantification analysis of gene expression using the ΔΔCT method as previously described,[13],[16].

[1] = test system: bone marrow derived monocytes, CCL2-induced migration; test: CCL2-induced chemotaxis assay; type: cell-based, mouse; set-up: cell velocity / distance traveled / chemotactic index: dose or concentration left out as unconfirmed
Procedure: Chemotaxis assays were performed using IBIDI µ-Slides as per the manufacturer's instructions and the recently published guide detailing the protocol. […] Cells were allowed to attach for 3 h at 37 °C, washed with 0.2 mL warm cell culture medium using a pipette tip inserted into µ-channel port, following which 100 nM recombinant mouse CCL2 protein was added as a chemoattractant (or omitted in control slides) to the one of side reservoirs. Cell movement was recorded for a duration of 12 h via phase video-microscopy in a stage-top humidified incubator at 37 °C and 5% CO2 atmosphere. Analysis was performed using the ImageJ IBIDI tracking tool, available free of charge at https://ibidi.com.

[2] = test system: NLRP3 inflammasome (J774 cells); test: Inflammasome activation immunoblot in J774 cells; type: cell-based, mouse; settings: additional activator ATP 1 mM
Procedure: BMDMs or J774 cells were plated in 48-well plates at 2 x 10^5 per well. Next day, the medium was changed to Opti-MEM (100 μL per well) without serum and the cells were allowed to equilibrate for 3 h. Next, the cells were pretreated with the indicated concentrations of nanoparticles or controls for 3 h followed by the addition of LPS to some wells to the final LPS concentration of 50 ng/mL. LPS priming continued for another 2 h, following which DMSO (vehicle), Nigericin (5 μM) or adenosine triphosphate (ATP) (1 mM) were added to some wells. Cells were incubated for an additional 30 min and cell culture supernatants were collected on ice. Cells were washed with cold PBS once and lysed/processed as described in immunoblotting section. The supernatants (90 μL) were mixed with 10 μL of 10x SDS loading buffer (10% SDS, 10% Ficoll 400, 0.5 M Tris pH 6.8, 0.5 M DTT, and 0.001% bromophenol blue) and heat-denatured as described in the immunoblotting section. Supernatants were loaded at 45 μL per lane on Bio Rad TGX Criterion 12+2 gels (4-20%) and lysates were loaded at 15 μg per lane. Immunoblotting was performed as described above.
Supplementary Figure S10. Inflammasome activation assays in J774 cells. The cells were treated as described in Methods and main text Figure 5 legend, plus additional inflammasome activator ATP that was added at 1 mM. Immunoblot was performed as described in methods. […]

CCR2 [3] = test: Uptake in macrophages from CCR2 knockout mice; type: cell-based, mouse; settings: CCR2 KO vs wild-type, carboxyfluorescein-labeled
Procedure: (§1) Supplementary Figure S6. A) Separate channels for main manuscript Figure 1B.
(§2) Uptake of carboxyfluorescein-labeled CCTV or VTCC in cultured bone marrow derived macrophages from B)
(§3) CCR2 knockout (KO, B6.129S4-Ccr2 /J) or wild-type (WT) mice; C) wild-type mouse-derived macrophages
(§4) pre-treated (6 h) with CCR2 inhibitor BMS CCR2 22 (10 nM) or DMSO as vehicle control. C)
(§5) (1 picture or pasted object on this page, not shown here)

CCR2 [4] = test: Uptake in wild-type macrophages pre-treated with CCR2 inhibitor; type: cell-based, mouse; settings: BMS CCR2 22 10 nM, 6 h pre-treatment vs DMSO
Procedure: as §1, §2, §3, §4, §5

CCTV
cell-surface binding (RAW-Blue cells): high cell-surface binding
toxicity of SH-conjugated nanoparticles (RAW cells): very low toxicity
Il1b mRNA expression (RAW 264.7 cells): significantly downregulated
Il6 mRNA expression (RAW 264.7 cells): significantly downregulated
Nos2 mRNA expression (RAW 264.7 cells): significantly downregulated
Tnf mRNA expression (RAW 264.7 cells): unaffected
cell velocity ([1]; CCL2-induced chemotaxis): statistically significant inhibition
chemotactic index ([1]; CCL2-induced chemotaxis): statistically significant inhibition
distance traveled ([1]; CCL2-induced chemotaxis): statistically significant inhibition
CCL2-induced monocyte migration ([1]; pre-treated BMDMs, 100 nM recombinant mouse CCL2, 12 h, nanoparticles): potently inhibited CCL2-induced monocyte migration in an antagonistic manner
inflammasome deactivation in J774 cells [2]: reproducible in J774 cells
uptake in CCR2 knockout macrophages (CCR2 [3]): drastically reduced
uptake in macrophages pre-treated with BMS CCR2 22 (CCR2 [4]): drastically reduced
